Experimental data from ChEMBL document CHEMBL1201862, “PubChem BioAssay data set” (2004).
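All cell lines were grown in 96-well plates and treated with compound for 48 hours. GI50 is the concentration that inhibits growth by half.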 The source made the active and inactive calls. No stated cut-off is given here; in the data, active = GI50 up to about 1.1 µM and inactive = higher.

How the values were obtained:
Test in all cases: NCI anticancer screen, dose series, 48 h
A498 = system: A498
TK-10 = system: TK-10
M14 = system: M14
CAKI-1 = system: CAKI-1
BT-549 = system: BT-549
SK-MEL-28 = system: SK-MEL-28
HOP-92 = system: HOP-92
T47D = system: T47D
NCI-H460 = system: NCI-H460
DU-145 = system: DU-145
Hs-578T = system: Hs-578T
UACC-257 = system: UACC-257
MDA-MB-231 = system: MDA-MB-231
MCF7 = system: MCF7
SNB-75 = system: SNB-75
HCT-116 = system: HCT-116
MDA-N = system: MDA-N
SN12C = system: SN12C
KM-20L2 = system: KM-20L2
SNB-78 = system: SNB-78

SMILES | GI50 (A498) | GI50 (TK-10) | GI50 (M14) | GI50 (CAKI-1) | GI50 (BT-549) | GI50 (SK-MEL-28) | GI50 (HOP-92) | GI50 (T47D) | GI50 (NCI-H460) | GI50 (DU-145) | GI50 (Hs-578T) | GI50 (UACC-257) | GI50 (MDA-MB-231) | GI50 (MCF7) | GI50 (SNB-75) | GI50 (HCT-116) | GI50 (MDA-N) | GI50 (SN12C) | GI50 (KM-20L2) | GI50 (SNB-78)
O=[N+]([O-])c1ccc(Nc2nc3ccccc3s2)cc1 | 30.4 µM (inactive) | 33.7 µM (inactive) | 26.7 µM (inactive) | > 100 µM (inactive) | 27.2 µM (inactive) | 46.2 µM (inactive) | 26.2 µM (inactive) | 3.03 µM (inactive) | 29.4 µM (inactive) | 69.8 µM (inactive) | 29.9 µM (inactive) | 25.8 µM (inactive) | 18 µM (inactive) | – | – | – | – | – | – | –
O=C(NCCCNC(=O)c1ccc2cc(O)c(O)cc2c1)c1ccc2cc(O)c(O)cc2c1 | 63.4 µM (inactive) | 37.9 µM (inactive) | 45.7 µM (inactive) | > 100 µM (inactive) | 26.9 µM (inactive) | 40.4 µM (inactive) | 14.2 µM (inactive) | 26.7 µM (inactive) | 34 µM (inactive) | 26.7 µM (inactive) | – | 36.4 µM (inactive) | – | 30.9 µM (inactive) | 22.8 µM (inactive) | 37.4 µM (inactive) | 31.7 µM (inactive) | – | – | –
CCCOC(=O)CCC(NC(=O)c1ccc(Nc2nc3ccccc3nc2-c2cccs2)cc1)C(=O)OCCC (stereo not given) | – | > 100 µM (inactive) | – | > 100 µM (inactive) | – | > 100 µM (inactive) | 29.2 µM (inactive) | – | – | – | – | – | – | – | – | > 100 µM (inactive) | – | > 100 µM (inactive) | > 100 µM (inactive) | > 100 µM (inactive)
Nc1nc(=S)[nH]c2nc3c(c(-c4ccccc4)c12)CCCC3 | – | > 100 µM (inactive) | > 100 µM (inactive) | > 100 µM (inactive) | > 100 µM (inactive) | – | – | 60.1 µM (inactive) | > 100 µM (inactive) | > 100 µM (inactive) | 51.9 µM (inactive) | > 10 µM (inactive) | > 100 µM (inactive) | > 100 µM (inactive) | 34.8 µM (inactive) | > 100 µM (inactive) | > 100 µM (inactive) | 67.8 µM (inactive) | – | –
O=c1c2cc(I)ccc2nc(-c2cccs2)n1Nc1ccccc1 | – | – | 1.5 µM (inactive) | 11 µM (inactive) | 3.14 µM (inactive) | 17.9 µM (inactive) | – | – | 0.458 µM (active) | – | – | – | – | – | – | 12.2 µM (inactive) | – | 46.8 µM (inactive) | – | –
CC1C/C(=C\c2ccc(O)c(O)c2)C(=O)/C(=C/c2ccc(O)c(O)c2)C1 (stereo not given) | 3.18 µM (inactive) | 25 µM (inactive) | – | 5.74 µM (inactive) | – | 7.69 µM (inactive) | 6.18 µM (inactive) | 4.57 µM (inactive) | 12.7 µM (inactive) | 8.85 µM (inactive) | 4.06 µM (inactive) | 14.5 µM (inactive) | 11.3 µM (inactive) | 3.11 µM (inactive) | 4.73 µM (inactive) | 6.67 µM (inactive) | 4.69 µM (inactive) | 5.48 µM (inactive) | – | –
COc1ccc(NC2=NCCO2)c2ccccc12 | > 10 µM (inactive) | > 10 µM (inactive) | > 10 µM (inactive) | > 10 µM (inactive) | – | > 10 µM (inactive) | – | > 10 µM (inactive) | > 10 µM (inactive) | > 10 µM (inactive) | > 10 µM (inactive) | – | > 10 µM (inactive) | > 10 µM (inactive) | > 10 µM (inactive) | > 10 µM (inactive) | > 10 µM (inactive) | > 10 µM (inactive) | – | –
O=Cc1c(Br)[nH]c2ccccc12 | > 100 µM (inactive) | – | – | – | – | > 100 µM (inactive) | 29.6 µM (inactive) | – | > 100 µM (inactive) | – | – | 26.9 µM (inactive) | – | 47 µM (inactive) | 28.8 µM (inactive) | 84.7 µM (inactive) | – | > 100 µM (inactive) | > 100 µM (inactive) | > 67 µM (inactive)
